In assay [1] the target is biotinylated amyloid-beta(1-42) (bioAbeta42) (Homo sapiens, UniProt P05067). Type of assay: biochemical.
Another assay deals with Aβ 1-40 (Homo sapiens, UniProt P05067). Description: Aβ ThT aggregation (fibrillization) assay. Type of assay: biochemical.
The subject of the next assay is SIM-A9 cells. Description: Anti-inflammation assay: TNF-α production from LPS stimulated SIM-A9 cells (ELISA). Type of assay: cell-based.
In another assay the test system is SH-SY5Y. Put plainly: Neurotoxicity (Ntox) assay: SH-SY5Y viability after supernatant from activated differentiated THP-1 cells. Type of assay: cell-based, human. The note with it: 25 μM compound on THP-1; SH-SY5Y viability 72 h post-addition of supernatant. The source says:
This study used differentiated (using phorbol myristate acetate, PMA) human acute monocytic leukemia cells, THP-1, cultured in RPMI 1640 medium supplemented with additives. Earlier studies with THP-1 cell line indicate that upon LPS/IFNγ activation, these cells release neurotoxic factors [Cheung Y T, et al. Neurotoxicology. 2009; 30(1):127-35]. These are remarkably plastic cells, which can potentially polarize to multiple cell lineages on the application of specific stimuli. On treatment with PMA, the suspension (floating cells) mature to a highly adherent phenotype with increased phagocytic ability (macrophage/microglia like). Typically, after PMA differentiation THP-1 monocytes, display increased cell surface expression of CD11b and CD14. PMA differentiated macrophage/microglia with a combination of LPS/IFNγ/amyloid beta peptide were used to activate the cells; and small synthetic molecules were tested. The cell-free supernatant generated from microglia were then transferred to previously mature neuronal cells lines.
Seed (0.5×10^6) THP-1 cells in each well of a 12-well tissue culture plate in warm complete growth medium up to 500 μl to 1 ml per well. […]

For assay [2], the system named is differentiated THP-1 cells. Description: Anti-inflammatory cytokine levels (M2 indicators) during neurotoxicity assay. It is filed as cell-based, human. To be noted: FIG. 6.
Text: This study used differentiated (using phorbol myristate acetate, PMA) human acute monocytic leukemia cells, THP-1, cultured in RPMI 1640 medium supplemented with additives. […] On treatment with PMA, the suspension (floating cells) mature to a highly adherent phenotype with increased phagocytic ability (macrophage/microglia like). Typically, after PMA differentiation THP-1 monocytes, display increased cell surface expression of CD11b and CD14. PMA differentiated macrophage/microglia with a combination of LPS/IFNγ/amyloid beta peptide were used to activate the cells; and small synthetic molecules were tested. The cell-free supernatant generated from microglia were then transferred to previously mature neuronal cells lines. The THP-1 monocytes should have adhered to the plate by now; these are defined as M0 macrophages. Remove the differentiating medium containing PMA and add the Experimental medium with stimulants at a final concentration of IFNγ 400 ng/ml and LPS 1 μg/ml. These stimulants are the first stimulus for the conversion into M1 macrophages. Keep the first stimulus on for three hours and add 25 μM of compounds in the required wells (This is aimed at converting M1→M2 macrophages/microglia like cells). […]
The mark [3] stands for this setting: Example 5, ND = inhibition activity not detected over 200 μM, read-out: Inhibition of Aβ oligomerization, μM IC50.
The mark [4] stands for this setting: read-out: % inhibition of Aβ fibrillization (at 100 μ M), compound at 100 μM, Example 3.
Setting [5] is: read-out: Inhibition of Aβ fibrillization at concentration 100 μM, Inhibition %, compound at 100 μM, Example 5, versus DMSO control.
Where [6] appears, read: SIM-A9, read-out: TNF-α Inhibition.
Where [7] appears, read: compound at 100 μM, Example 5, versus DMSO control, read-out: Inhibition of Aβ fibrillization at concentration 100 μM, Inhibition %.
Setting [8] is: compound 2.7 μM, LPS stimulated SIM-A9 cells, read-out: TNF-α Inhibition.
Where [9] appears, read: compound at 100 μM, Example 5, versus DMSO control.

Like-named read-outs stand apart in the source and are kept apart here. Where only a bound is given, the exact number is not on record here.

Sequence of biotinylated amyloid-beta(1-42) (bioAbeta42) (P05067 672-713): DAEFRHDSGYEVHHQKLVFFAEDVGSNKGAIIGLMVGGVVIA
Sequence of Aβ 1-40 (P05067 672-711): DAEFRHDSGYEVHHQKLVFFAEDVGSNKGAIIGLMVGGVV

The IC50 is the concentration at which inhibition is half-maximal. With `OC(c1ccc(Br)cc1NCc1ccco1)C(F)(F)F` (centres unmarked) [WW016, 1-(4-Bromo-2-((furan-2-ylmethyl)amino)phenyl)-2,2,2-trifluoroethan-1-ol], the IC50 in assay [1] (setting [3]) is greater than 200 µM. Moreover, the inhibition at 100 µM on Aβ 1-40 (setting [4]) was 81.3%; on Aβ 1-40 (setting [5]), 81%. In the assay on SIM-A9 cells (setting [6]), the inhibition at 2.7 µM was determined as 34.8%.
Consider `OC(c1ccc(Cl)cc1NCc1ccco1)C(F)(F)F` (centres unmarked) [WW013, 1-(4-Chloro-2-((furan-2-ylmethyl)amino)phenyl)-2,2,2-trifluoroethan-1-ol], for which the IC50 in assay [1] (setting [3]) was greater than 200 µM. For the same molecule, the inhibition at 100 µM on Aβ 1-40 (setting [5]) was determined as 60.7%. Besides, the inhibition at 2.7 µM with SIM-A9 cells (setting [6]) stood at 33%.
With `OC(c1ccc(Br)cc1NCc1cscn1)C(F)(F)F` (centres unmarked) [WW017, 1-(4-Bromo-2-((thiazol-4-ylmethyl)amino)phenyl)-2,2,2-trofluoroethan-1-ol], the IC50 in assay [1] (setting [3]) is greater than 200 µM. The inhibition at 100 µM at Aβ 1-40 (setting [4]) and at Aβ 1-40 (setting [5]) was 33% in each case. Also, the inhibition at 2.7 µM in the assay on SIM-A9 cells (setting [6]) came to 31%.
Turning to `CNS(=O)(=O)c1cc(C(=O)OC)c(NCc2ccco2)cc1Cl` [WW100], the IC50 in assay [1] (setting [3]) came to 56 ± 26.6 µM. Besides, the inhibition at 100 µM at Aβ 1-40 (setting [7]) was 27.1%. Also, the inhibition at 2.7 µM in the assay with SIM-A9 cells (setting [8]) is 31%.
`COc1ccc(C(O)C(F)(F)F)c(NCc2cscn2)c1` (centres unmarked) [WW005]: the IC50 in assay [1] (setting [3]) is 130 ± 28.4 µM. Also, the inhibition at 100 µM on Aβ 1-40 (setting [5]) is 6.49%. The inhibition at 2.7 µM with SIM-A9 cells (setting [6]) stood at 27%.
Turning to `O=C(O)c1ccccc1NCc1ccccc1` [2-(benzylamino)benzoic acid], the “Rescue of neuronal cells under Aβ-induced neurotoxicity / neuroinflammation” value with SH-SY5Y was “able to rescue neuronal cells under Aβ-induced neurotoxicity”.
For `CNC(=O)c1cc(S(=O)(=O)NC)c(Cl)cc1NCc1ccco1` [WW102, 4-Chloro-2-((furan-2-ylmethyl)amino)-N-methyl-5-(N-methylsulfamoyl)benzamide], the IC50 in assay [1] (setting [3]) came to 103 ± 22.1 µM. The “Inhibition of Aβ fibrillization at concentration 100 μM, Inhibition %” value (shortened to “Inhibition of Aβ fibrillization … Inhibition %”) at Aβ 1-40 (setting [9]) is listed as “Pro- fibrillization”. Moreover, in the assay on SIM-A9 cells (setting [8]), the inhibition at 2.7 µM worked out at 25%.
For `OC(c1ccc(F)cc1NCc1ccco1)C(F)(F)F` (centres unmarked) [WW011, 2,2,2-Trifluoro-1-(4-fluoro-2-((furan-2-ylmethyl)amino)phenyl) ethan-1-ol], the IC50 in assay [1] (setting [3]) was determined as 153 ± 48 µM. For the same molecule, the inhibition at 100 µM on Aβ 1-40 (setting [5]) worked out at 5.14%. In the assay with SIM-A9 cells (setting [6]), the inhibition at 2.7 µM is 25.9%.
For the molecule `O=C(O)c1cc(S(=O)(=O)N2CCCCC2)c(Cl)cc1NCc1ccco1` [WW096, 4-Chloro-2-((furan-2-ylmethyl)amino)-5-(piperidin-1-ylsulfonyl) Benzoic Acid], the IC50 in assay [1] (setting [3]) is greater than 200 µM. On Aβ 1-40 (setting [7]), the inhibition at 100 µM was found to be 19.1%. In the assay with SIM-A9 cells (setting [8]), the inhibition at 2.7 µM was 11%.
Turning to `COc1ccc(C(O)C(F)(F)F)c(NCc2ccco2)c1` (centres unmarked) [WW003, 2,2,2-trifluoro-1-(2-((furan-2-ylmethyl)amino)-4-methoxyphenyl) ethan-1-ol], in assay [1] (setting [3]), the IC50 was greater than 200 µM. The inhibition at 100 µM at Aβ 1-40 (setting [5]) stood at 36.8%. Further, the inhibition at 2.7 µM with SIM-A9 cells (setting [6]) is 28%.
Consider `NS(=O)(=O)c1cc(C(=O)O)c(NCc2ccco2)cc1Cl` [Furosemide, 4-Chloro-2-((furan-2-ylmethyl)amino)-5-sulfamoylbenzoic Acid, reference compound], for which, in assay [1] (setting [3]), the IC50 is greater than 200 µM. Also, the inhibition at 100 µM at Aβ 1-40 (setting [7]) was determined as 8.56%. For the same molecule, the “Concentrations of anti-inflammatory cytokines (IL-4, IL-10, IL-1RA, Arginase; M2 indicators)” value in assay [2] is listed as “increases the concentrations of anti-inflammatory cytokines”.
As to `OC(c1ccc(Cl)cc1NCc1cscn1)C(F)(F)F` (centres unmarked) [WW021, 1-(4-Chloro-2-((thiazol-4-ylmethyl)amino)phenyl)2,2,2-trifluoroethan-1-ol], the IC50 in assay [1] (setting [3]) is greater than 200 µM. Moreover, on Aβ 1-40 (setting [5]), the inhibition at 100 µM was determined as 27.9%. The inhibition at 2.7 µM in the assay on SIM-A9 cells (setting [6]) was 38%.
On to `O=C(O)c1cc(S(=O)(=O)NCc2ccc(C(O)C(F)(F)F)cc2)c(Cl)cc1NCc1ccco1` (centres unmarked) [WW036, 4-Chloro-2-((furan-2-ylmethyl)amino)-5-(N-(4-(2,2,2-trifluoro-1-hydroxyethyl)benzyl)sulfamoyl)benzoic Acid], for which the IC50 in assay [1] (setting [3]) is 68.5 ± 18.7 µM. The “Inhibition of Aβ fibrillization … Inhibition %” value at Aβ 1-40 (setting [9]) is “Pro- fibrilliza- tion”.
As for `O=C(O)c1cc(S(=O)(=O)N2CCOCC2)c(Cl)cc1NCc1ccco1` [WW049, 4-Chloro-2((furan-2-ylmethyl)amino)-5-(morpholinosulfony)benzoic Acid], the IC50 in assay [1] (Example 2, read-out: Anti-Aβ oligomerization IC50) was determined as 38.5 µM; in assay [1] (setting [3]) it was 41.2 ± 12.8 µM. In addition, the “Inhibition of Aβ fibrillization … Inhibition %” value at Aβ 1-40 (setting [9]) was “Pro- fibrilliza- tion”.
Regarding `CNS(=O)(=O)c1cc(C(N)=O)c(NCc2ccco2)cc1Cl` [WW101, 4-Chloro-2-((furan-2-ylmethyl)amino)-5-(N-methylsulfamoyl)benzamide], in assay [1] (setting [3]), the IC50 amounted to 82.4 ± 28.5 µM. Moreover, the “Inhibition of Aβ fibrillization … Inhibition %” value at Aβ 1-40 (setting [9]) is recorded as “Pro- fibrillization”. In addition, in the assay on SIM-A9 cells (setting [8]), the inhibition at 2.7 µM worked out at 27%.

Source of the values: patent US20220259167A1 (UNIVERSITY HEALTH NETWORK, priority 2019, published 2022).
